# Legend:
# [1] = target: T1, albumin (Bovin Serum Albumin; BSA) (Bos taurus, UniProt P02769); test: Gel electrophoresis for ionic bond between additives and protein drug; assay type: binding; details: additive at various concentrations in 0.01% albumin solution
# T1 construct: purchased Wako chemical
# Experimental: Each of them was added to 0.01% albumin solution (Bovin Serum Albumin; BSA, Wako chemical) at various concentrations and sufficiently stirred. After holding for 20 minutes, an electrophoresis for each of the obtained solutions was conducted through polyacrylamide gel.
# [2] = tested on: Cells of stomach cancer, SNU-601; test: In vivo anti-cancer activity of the poly(organophosphazene) hydrogel containing paclitaxel; parameters: species or system nude mouse; details: 60 mg/kg, day 10 after administration, ten mice per group
# Experimental: A nude mouse (OrientalBio, Balb/C, female of 5-weeks old, 20 g) was used as an animal model for animal experimentation for an in vivo test. Cells of stomach cancer, SNU-601 (1×10^7 cells, 0.2 ml, Korean Cell Line Bank), were injected into the dorsum of the mouse. […] 0.2 ml of the solution was injected into the cancer cells, and the change in the size of the cells was measured.
# Each test was conducted for ten (10) mice for each of the control groups and the experimental groups.
# T1 sequence (P02769 25-607): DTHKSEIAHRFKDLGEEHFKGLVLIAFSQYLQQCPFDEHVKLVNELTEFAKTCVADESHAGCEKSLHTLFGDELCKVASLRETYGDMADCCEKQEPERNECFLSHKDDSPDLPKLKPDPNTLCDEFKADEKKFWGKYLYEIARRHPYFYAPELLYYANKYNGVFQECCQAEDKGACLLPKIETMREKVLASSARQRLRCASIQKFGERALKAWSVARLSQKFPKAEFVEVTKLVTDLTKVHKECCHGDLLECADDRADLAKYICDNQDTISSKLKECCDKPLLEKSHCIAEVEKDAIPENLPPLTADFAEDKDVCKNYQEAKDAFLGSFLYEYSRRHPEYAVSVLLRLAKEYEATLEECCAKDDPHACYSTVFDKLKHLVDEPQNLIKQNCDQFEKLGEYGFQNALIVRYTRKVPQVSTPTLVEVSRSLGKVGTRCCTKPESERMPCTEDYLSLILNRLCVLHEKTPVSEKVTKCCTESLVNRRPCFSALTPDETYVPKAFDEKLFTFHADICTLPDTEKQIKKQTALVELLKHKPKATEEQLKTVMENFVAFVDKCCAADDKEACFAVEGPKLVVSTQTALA
molecule,measurement,setting,value
protamine,development property in polyacrylamide gel (ionic bond with albumin),[1],worse development property of the gel as the concentration of the additive is higher
"CC(=O)O[C@H]1C(=O)[C@@]2(C)[C@H]([C@H](OC(=O)c3ccccc3)[C@]3(O)C[C@H](OC(=O)[C@H](O)[C@@H](NC(=O)c4ccccc4)c4ccccc4)C(C)=C1C3(C)C)[C@]1(OC(C)=O)CO[C@@H]1C[C@@H]2O [Paclitaxel, paclitaxel]",mice died due to toxicity,[2],8 mice

# Source: patent publication US9526699B2, “Biodegradable and thermosensitive poly(organophosphazene) hydrogel, preparation method thereof and use thereof” (KIST, priority 2006, dated 2016)
